The structures appear in SMILES notation.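 Step 1: Grow cells in 96-well plates. Step 2: Expose to compound for 48 hours at 5 concentrations. Step 3: Interpolate endpoints linearly; if unreached, use highest concentration. The concentration for full growth arrest is given as TGI.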

Some test systems named below: ACHN renal; CAKI-1 renal; CCRF-CEM leukemia; COLO 205 colon; NCI-H226 lung; NCI-H23 lung; PC-3 prostate; RXF 393 renal; SF-539 CNS; UACC-257 melanoma; UO-31 renal; SK-MEL-28 melanoma.
What all share (assay): NCI-60 cell line screen, 48 h

With `c1ccc2nc3[nH]c4ccccc4c3cc2c1`, the TGI in the assay on ACHN renal is 12.2 µM; with CAKI-1 renal, 3.69 µM; in the assay on CCRF-CEM leukemia, greater than 100 µM; in the assay on COLO 205 colon it was 1.53 µM; in the assay with NCI-H226 lung, 18.3 µM; with NCI-H23 lung it was 1.81 µM. The TGI in the assay on PC-3 prostate stood at 4.09 µM; in the assay on RXF 393 renal, 2.66 µM; in the assay with SF-539 CNS, 1.23 µM; in the assay on UACC-257 melanoma, 2.47 µM; with UO-31 renal it was 13.1 µM.
As to `OC1C(O)C(O)C(O)C(O)C1O` (centres undefined), the TGI in the assay with ACHN renal is greater than 1000 µM; in the assay with CCRF-CEM leukemia it was 144 µM; with COLO 205 colon, greater than 1000 µM; in the assay on NCI-H226 lung it was greater than 1000 µM; in the assay on NCI-H23 lung, greater than 1000 µM; in the assay on PC-3 prostate, greater than 1000 µM. The TGI in the assay on RXF 393 renal, in the assay with SF-539 CNS, in the assay on SK-MEL-28 melanoma, in the assay with UACC-257 melanoma and in the assay with UO-31 renal was greater than 1000 µM in each case.
As to `Oc1ccc(-c2nc3cc(C(F)(F)F)ccc3n2CC2CCCN3CCCCC23)cc1` (centres undefined), the TGI in the assay with ACHN renal was found to be 28.3 µM; in the assay on CAKI-1 renal, 38.8 µM; in the assay with CCRF-CEM leukemia, 31.8 µM; with NCI-H226 lung it was 32.2 µM; in the assay on NCI-H23 lung, 30.4 µM; in the assay on PC-3 prostate it was 27.1 µM. Further, the TGI came out at 34.5 µM with RXF 393 renal; 34.6 µM with SF-539 CNS; 29.6 µM in the assay with SK-MEL-28 melanoma; 30.3 µM in the assay on UACC-257 melanoma; 25.1 µM in the assay with UO-31 renal.
As for `COc1cccc(NCC(=O)Nn2c(-c3ccccc3)nc3ccccc3c2=O)c1`, the TGI in the assay with ACHN renal, in the assay on CCRF-CEM leukemia, in the assay on COLO 205 colon, in the assay on NCI-H226 lung, in the assay with NCI-H23 lung and in the assay with PC-3 prostate was greater than 100 µM throughout. Moreover, the TGI with RXF 393 renal, with SF-539 CNS, with SK-MEL-28 melanoma, in the assay on UACC-257 melanoma and with UO-31 renal was greater than 100 µM in each case.
`CCN1/C(=C/c2ccc3ccccc3[n+]2CC)C=Cc2ccccc21`: the TGI in the assay on ACHN renal stood at 31.5 µM; in the assay with CAKI-1 renal, 56.8 µM; with CCRF-CEM leukemia, 6.81 µM; in the assay with NCI-H226 lung, 9.71 µM; in the assay on NCI-H23 lung, 17.1 µM; with PC-3 prostate, 4.58 µM. Also, the TGI with RXF 393 renal came to 12.8 µM; in the assay on SF-539 CNS, 13.7 µM; in the assay with SK-MEL-28 melanoma, 15.9 µM; in the assay on UACC-257 melanoma, 7.22 µM; in the assay on UO-31 renal, 8.45 µM.
As to `COC1=CC(=O)C(O)=C(C[C@@]2(C)[C@@H]3CCC[C@H](COC(=O)CCCCCNC(=O)OC(C)(C)C)[C@@]3(C)CC[C@@H]2C)C1=O`, the TGI in the assay with ACHN renal is greater than 10 µM; in the assay with CAKI-1 renal it was greater than 10 µM; in the assay on CCRF-CEM leukemia it was 5.29 µM; with COLO 205 colon, greater than 10 µM; in the assay on NCI-H226 lung, greater than 10 µM; in the assay on PC-3 prostate it was greater than 10 µM. The TGI with RXF 393 renal, in the assay with SK-MEL-28 melanoma, in the assay on UACC-257 melanoma and in the assay with UO-31 renal was greater than 10 µM each time.
For `O=C1Oc2ccccc2C(=O)/C1=C/N1C(=O)/C(=C/c2ccc([N+](=O)[O-])cc2)SC1=S`, the TGI in the assay with ACHN renal was 34 µM; in the assay with CAKI-1 renal it was 51.3 µM; in the assay with CCRF-CEM leukemia, greater than 100 µM; in the assay on COLO 205 colon, 53.2 µM; with NCI-H226 lung, 53.4 µM; with NCI-H23 lung, 55 µM. For the same molecule, the TGI in the assay on PC-3 prostate is 61.7 µM; with RXF 393 renal it was 79.3 µM; in the assay on SF-539 CNS, 45 µM; with SK-MEL-28 melanoma it was 85.7 µM; with UACC-257 melanoma, 90.7 µM.
For the molecule `CCOC(=O)CCC(NC(=O)c1ccc(CNc2nc3cc(N)cc(N)c3nc2-c2ccccc2)cc1)C(=O)OCC` (centres undefined), the TGI in the assay with ACHN renal, in the assay on CAKI-1 renal, with COLO 205 colon, in the assay with NCI-H226 lung, in the assay on NCI-H23 lung and with PC-3 prostate was greater than 100 µM throughout. Moreover, the TGI in the assay with RXF 393 renal is greater than 100 µM; in the assay with SF-539 CNS it was greater than 100 µM; with SK-MEL-28 melanoma it was 66.6 µM; in the assay with UACC-257 melanoma, 39.1 µM; with UO-31 renal, greater than 100 µM.
On to `CC1=C(C2=C(C)C(=O)C(=O)c3cc(C)ccc32)c2ccc(C)cc2C(=O)C1=O`, for which the TGI is 0.354 µM in the assay with ACHN renal; 0.328 µM with CAKI-1 renal; greater than 100 µM in the assay with CCRF-CEM leukemia; 0.525 µM with COLO 205 colon; 6.48 µM in the assay with NCI-H226 lung; 0.442 µM in the assay on NCI-H23 lung. Also, the TGI amounted to 1.04 µM with PC-3 prostate; 0.62 µM in the assay with RXF 393 renal; 0.346 µM with SF-539 CNS; 0.382 µM in the assay on UACC-257 melanoma; 0.305 µM in the assay on UO-31 renal.
For `CCOC(=O)CCC(C(=O)OCC)n1nc2ccc(Nc3c(C)[n+]([O-])c4cc(Cl)ccc4[n+]3[O-])cc2n1` (centres undefined), the TGI in the assay with ACHN renal, with CAKI-1 renal, with CCRF-CEM leukemia, with COLO 205 colon, with NCI-H226 lung and with NCI-H23 lung was greater than 100 µM in each case. The TGI with PC-3 prostate, with RXF 393 renal, with SF-539 CNS, with UACC-257 melanoma and with UO-31 renal was greater than 100 µM throughout.

The record behind these values is PubChem BioAssay (NCI).
